# Measurements: patent US20210196779A1, “Compositions and Methods for Treating Steroid Hormone-Related Diseases or Disorders” (YALE UNIVERSITY, priority 2018, published 2021)
# Experiments:
# MCF7 cells = assay: Cell growth assay, MCF7 breast cancer cells; type: cell-based; conditions: in the presence or absence of E2, 4 days
# Method: (§1) MCF7, T47D, MDA-MB-453, MDA-MB-231 breast cancer cells were grown in corning T75 cell culture flask in RPMI1640 medium supplemented with 5% FBS, 50 μg/ml Kanamycin in a 37° C., 5% CO2 incubator.
# (§2) 20,000 cells in 1 ml of medium (phenol red free RPMI1640, 5% charcoal-dialysis FBS, 50 μg/ml Kanamyacin) were seeded per well of a 24-well plate and incubated in a 37° C. incubator with 5% CO2 overnight. Different concentrations of herbal extract were added to each well in order to have final concentrations from 50 μg/ml to 500 μg/ml. For prostate cancer cells, DHT (25 nM) was used to stimulate androgen receptor activity. For glucocorticoid receptor overexpressed LNCaP cells, dexamethasone (50 nM) was used to stimulate glucocorticoid receptor activity. For all breast cancer cells, E2 (10 nM) was used to stimulate ER activity. Control medium without any steroid hormone was used as a control setting. After 4 days of incubation, cells were fixed and stained for 2 h with 0.5% methylene blue in 50% ethanol, followed by washing with tap water to remove unbound dye. Plates were air dried and then cells were dissolved in 1% sarkosyl (sodium lauroyl sarcosinate) by shaking at room temperature for 3 h. Cell growth was quantified based on the amount of methylene blue adsorbed by the cells as measured by a spectrophotometer (Molecular Devices) at 595 nm. […]
# KLK2 mRNA = assay: qRT-PCR of KLK2 mRNA in 22RV1 cells; type: cell-based, Human; conditions: 22RV1 cells treated overnight, normalized to beta-actin
# Method: (§3) FIGS. 4C-4D are graphs showing the effect of Y1830, RG (or the fraction comprising RG) and RGA (or the fraction comprising RGA) on the mRNA of PSA (FIG. 4C) and KLK2 (FIG. 4D). 22RV1 cells were treated with Y1830, RGA or RG overnight and mRNA was extracted for qRT-PCR to determine the mRNA expression level of PSA and KLK2 as normalized to beta-actin.
# (§4) RNA was extracted from herb treated cells using the Roche High Pure RNA isolation kit. cDNA was then generated from RNA samples using a Bio-rad iScript Advanced cDNA synthesis kit for RT-qPCR. qPCR was performed using human NRF2, H01, NQO1 and β-actin primers (Table 1) and iTaq™ Universal SYBR® Green Supermix in a CFX PCR machine (Bio-rad). Relative mRNA expression was calculated based on the change of the threshold cycle relative to the internal control, β-actin, using a standard curve generated by purified PCR products.
# PSA mRNA = assay: qRT-PCR of PSA mRNA in 22RV1 cells; type: cell-based, Human; conditions: 22RV1 cells treated overnight, normalized to beta-actin
# Method: as §3, §4
# H3K9 acetylation = assay: Western blot, MCF7 and 22RV1 cells, H3K9 acetylation; type: cell-based; conditions: MCF7 and 22RV1 cells (FIGS. 11A-11B), 24 h
# Method: (§5) Western blot analysis was used to determine the protein expression using protein specific antibodies. β-actin or histone 3 was used to normalize protein loading.
# (§6) Total cell lysis was conducted using 2×SDS sample buffer (62.5 mM Tris-HCl, 2% SDS, 10% glycerol, 50 mM DTT, and 0.05% bromophenol blue). The samples were sonicated for 10 s to shear DNA. Cell nuclei were isolated using Tris buffer saline with 0.4% NP40. Cell extracts were then electrophoresed through 10% SDS-polyacrylamide gels and transferred to 0.2 μm nitrocellulose membranes (Bio-Rad Laboratories, Hercules, Calif.) with a Miniprotein II transferring apparatus (Bio-Rad). The membranes were blocked and probed in TBS-T buffer (1×TBS buffer, 0.2% Tween 20) containing 5% non-fat milk. […] Enhanced chemiluminescence reagents (Perkin-Elmer Life Science Products, Boston, Mass.) were used to visualize the immunoreactive bands and the densities of protein bands were scanned analyzed using ImageJ software from the NIH.
# CD47 = assay: Western blot, MCF7 cells, CD47; type: cell-based; conditions: MCF7 cells (FIG. 10)
# Method: as §6, with “milk. Monoclonal rabbit anti-AR (1:5000), was used to detect androgen receptor (Abcam #133273), Glucocorticoid Receptor (D8H2) XP® Rabbit mAb #3660, ERa Antibody (F-10): sc-8002, BRD4 (E2A7X) Rabbit mAb #13440, Brd2 (D89B4) Rabbit mAb #5848, PARP (46D11) Rabbit mAb #9532, Acetyl-Histone H3 (Lys27) (D5E4) XP® Rabbit mAb #8173 and a monoclonal actin antibody diluted 1:2500 (Sigma, St. Louis, Mo.) was used to detect β-actin as the internal control to confirm equal protein loading.” for “milk.”
# tumor protein p53 = assay: Western blot, MCF7 cells, p53; type: cell-based; conditions: wt MCF7 cells, 24 h
# Method: (§7) Western blot analysis was used to determine the protein expression using protein specific antibodies.
# as §6, with “milk. Monoclonal rabbit anti-AR (1:5000), was used to detect androgen receptor (Abcam #133273), Glucocorticoid Receptor (D8H2) XP® Rabbit mAb #3660, ERa Antibody (F-10): sc-8002, BRD4 (E2A7X) Rabbit mAb #13440, Brd2 (D89B4) Rabbit mAb #5848, PARP (46D11) Rabbit mAb #9532, Acetyl-Histone H3 (Lys27) (D5E4) XP® Rabbit mAb #8173 and a monoclonal actin antibody diluted 1:2500 (Sigma, St. Louis, Mo.) was used to detect β-actin as the internal control to confirm equal protein loading.” for “milk.”
# Gata3 = assay: Western blot, MCF7 cells, Gata3; type: cell-based; conditions: 24 h
# Method: as §7
# as §6, with “milk. Monoclonal rabbit anti-AR (1:5000), was used to detect androgen receptor (Abcam #133273), Glucocorticoid Receptor (D8H2) XP® Rabbit mAb #3660, ERa Antibody (F-10): sc-8002, BRD4 (E2A7X) Rabbit mAb #13440, Brd2 (D89B4) Rabbit mAb #5848, PARP (46D11) Rabbit mAb #9532, Acetyl-Histone H3 (Lys27) (D5E4) XP® Rabbit mAb #8173 and a monoclonal actin antibody diluted 1:2500 (Sigma, St. Louis, Mo.) was used to detect β-actin as the internal control to confirm equal protein loading.” for “milk.”
# H3K14 acetylation = assay: Western blot, MCF7 and 22RV1 cells, H3K14 acetylation; type: cell-based; conditions: MCF7 and 22RV1 cells (FIGS. 11A-11B), 24 h
# Method: as §5, §6
# Brd2 = assay: Western blot, MCF7 and 22RV1 cells, Brd2; type: cell-based; conditions: MCF7 (with or without E2) or 22RV1 (with or without DHT), 24 h
# Method: as §5, §6
# AR (stimulated with DHT) = AR (stimulated with DHT) (Homo sapiens, UniProt P10275, T878A); assay: AR driven luciferase activity (DHT) in LNCaP / LNCaP-GR cells; conditions: LNCaP / LNCaP-GR luciferase reporter cells
# Method: Both LNCaP and GR overexpressing LNCaP cells were carrying luciferase reporters with AR response elements.
# 22RV1 or LNCaP prostate cancer cells were used in the screening study. 22RV1 or LNCaP cell lines were stably transfected with PSA promoter-PGL4.2 luciferase reporter.
# Reporter cells were treated with herbal extracts at 30, 100, 300, and 1000 μg/ml for 24 h in a 37° C.-CO2 incubator. […] Dexamethasone (50 nM) was used to stimulate glucocorticoid receptor activity Cells were lysed using luciferase lysis buffer after which luciferase buffer with luciferin was added to generate luminescence. Luminescence was recorded using a luminescence microplate reader.
# T4D cells = assay: Cell growth assay, T4D breast cancer cells; type: cell-based; conditions: under E2 stimulation, 4 days
# Method: as §1, §2
# [1] = test system: histone 2AX serine 139 phosphorylation; assay: Western blot, MCF7 cells, H2AX-ser139; type: cell-based; conditions: presence or absence of E2, 24 h
# Method: as §7
# as §6, with “milk. Monoclonal rabbit anti-AR (1:5000), was used to detect androgen receptor (Abcam #133273), Glucocorticoid Receptor (D8H2) XP® Rabbit mAb #3660, ERa Antibody (F-10): sc-8002, BRD4 (E2A7X) Rabbit mAb #13440, Brd2 (D89B4) Rabbit mAb #5848, PARP (46D11) Rabbit mAb #9532, Acetyl-Histone H3 (Lys27) (D5E4) XP® Rabbit mAb #8173 and a monoclonal actin antibody diluted 1:2500 (Sigma, St. Louis, Mo.) was used to detect β-actin as the internal control to confirm equal protein loading.” for “milk.”
# H3K27 acetylation = assay: Western blot, MCF7 and 22RV1 cells, H3K27 acetylation; type: cell-based; conditions: 24 h
# Method: as §5, §6
# AR (stimulated with DHT), sequence (P10275 whole entry T878A): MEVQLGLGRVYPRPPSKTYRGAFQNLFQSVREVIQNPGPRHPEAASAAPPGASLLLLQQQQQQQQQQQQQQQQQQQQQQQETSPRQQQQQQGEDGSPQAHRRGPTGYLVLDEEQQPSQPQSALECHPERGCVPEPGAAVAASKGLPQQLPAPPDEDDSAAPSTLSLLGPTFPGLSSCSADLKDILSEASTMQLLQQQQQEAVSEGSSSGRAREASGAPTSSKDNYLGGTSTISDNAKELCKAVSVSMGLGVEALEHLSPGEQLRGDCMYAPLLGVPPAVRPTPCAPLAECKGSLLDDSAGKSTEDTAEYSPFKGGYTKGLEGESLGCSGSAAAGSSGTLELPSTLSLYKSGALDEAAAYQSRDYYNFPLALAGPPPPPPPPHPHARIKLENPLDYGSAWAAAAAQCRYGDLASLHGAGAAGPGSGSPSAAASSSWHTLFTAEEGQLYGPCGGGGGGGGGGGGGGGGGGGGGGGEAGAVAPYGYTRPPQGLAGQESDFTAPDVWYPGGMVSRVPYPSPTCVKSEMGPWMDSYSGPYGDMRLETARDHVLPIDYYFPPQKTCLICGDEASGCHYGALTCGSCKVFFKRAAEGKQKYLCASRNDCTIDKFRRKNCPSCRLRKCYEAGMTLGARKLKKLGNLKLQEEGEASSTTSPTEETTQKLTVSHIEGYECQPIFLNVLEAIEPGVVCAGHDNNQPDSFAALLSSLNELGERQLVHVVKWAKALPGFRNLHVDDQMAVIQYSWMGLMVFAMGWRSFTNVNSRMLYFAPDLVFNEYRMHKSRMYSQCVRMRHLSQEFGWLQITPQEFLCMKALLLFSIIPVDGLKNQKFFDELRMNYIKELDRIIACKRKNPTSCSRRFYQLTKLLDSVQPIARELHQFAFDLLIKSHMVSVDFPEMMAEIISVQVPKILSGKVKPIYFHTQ
Structure (SMILES),inhibition on the growth of MCF7 cells (MCF7 cells),inhibition of mRNA expression of KLK2 (KLK2 mRNA),inhibition of mRNA expression of PSA (PSA mRNA),H3K9 acetylation (H3K9 acetylation),CD47 expression (CD47),p53 protein expression (tumor protein p53),Gata3 protein expression (Gata3),H3K14 acetylation (H3K14 acetylation),Brd2 protein expression (Brd2),inhibition of DHT induced transcriptional response (AR (stimulated with DHT)),inhibitory effect on T4D cell growth (T4D cells),histone 2AX serine 139 phosphorylation [1],H3K27 acetylation (H3K27 acetylation)
"Cc1c(OC2OC(CO)C(O)C(O)C2OC2OC(C)C(O)C(O)C2O)cc2c(c1O)C(=O)c1ccc(O)cc1C2=O [RG, 1,3,6-Trihydroxy-2-methyl-9,10-anthracenedione 3-O-[α-L-Rhamnopyranosyl-(1→2)-β-D-glucopyranoside]]",very weak growth inhibition,did not demonstrate this level of activity,did not demonstrate this level of activity,,,,,,,,,,
"CC(=O)OCC1OC(Oc2cc3c(c(O)c2C)C(=O)c2ccc(O)cc2C3=O)C(OC2OC(C)C(O)C(O)C2O)C(O)C1O [RGA, 1,3,6-Trihydroxy-2-methyl-9,10-anthracenedione 3-O-[α-L-Rhamnopyranosyl-(1→2)-6-O-acetyl-β-D-glucopyranoside]]",,,,did not have a large impact,downregulation,downregulated,downregulation,did not have a large impact,decreased,effectively inhibit,strong inhibitory effect,triggered,selectively decreased
